Measured values: patent US20100029619A1, “FUSED HETEROCYCLIC COMPOUND” (TAKEDA PHARMACEUTICAL COMPANY LIMTED, priority 2006, published 2010)
Counter-ions that a name gives are not always drawn.

**Q.** For `CC(C)c1ncc(-c2ccc3nc(NC(=O)c4ccc(C(C)(C)C)cc4)cn3n2)[nH]1.Cl`, which melting point is on record?
**A.** 304 to 305 °C (dec.)

**Q.** Which melting point does the source give for `CC(C)(C#N)c1ccc(C(=O)Nc2cn3cc(-n4ccnc4)ccc3n2)cc1` [Example 130, 4-(1-cyano-1-methylethyl)-N-[6-(1H-imidazol-1-yl)imidazo[1,2-a]pyridin-2-yl]benzamide] here?
**A.** 241 to 244 °C

**Q.** For `Cc1cccc2nc(NC(=O)c3ccc(C4(C(=O)O)CCC4)cc3)cn12` [Example 188, 1-{4-[(5-methylimidazo[1,2-a]pyridin-2-yl)carbamoyl]phenyl}cyclobutanecarboxylic acid], which melting point is on record?
**A.** 272 °C

**Q.** Which melting point does the source give for `CC(C)(C)c1ccc(C(=O)Nc2cn3cc(-c4ccoc4)ccc3n2)cc1` [Example 61, 4-tert-butyl-N-[6-(3-furyl)imidazo[1,2-a]pyridin-2-yl]benzamide] here?
**A.** 258 to 259 °C

**Q.** For `CC(=O)NCC(C)(C)c1ccc(C(=O)Nc2cn3cc(-n4ccnc4)ccc3n2)cc1` [Example 135, 4-[2-(acetylamino)-1,1-dimethylethyl]-N-[6-(1H-imidazol-1-yl)imidazo[1,2-a]pyridin-2-yl]benzamide], which melting point is on record?
**A.** 242 to 244 °C

**Q.** With `CC(C)(C(=O)NCCC#N)c1ccc(C(=O)Nc2cn3cc(Cl)ccc3n2)cc1` [Example 35, N-(6-chloroimidazo[1,2-a]pyridin-2-yl)-4-{2-[(2-cyanoethyl)amino]-1,1-dimethyl-2-oxoethyl}benzamide] as the compound, how does the melting point read?
**A.** 208 to 209 °C

**Q.** With `CC(C)(CO)c1ccc(C(=O)Nc2cn3cc(-c4ccoc4)ccc3n2)cc1` [Example 465, N-[6-(3-furyl)imidazo[1,2-a]pyridin-2-yl]-4-(2-hydroxy-1,1-dimethylethyl)benzamide] as the compound, how does the melting point read?
**A.** 246 to 248 °C

**Q.** For `Cc1cn(-c2ccc3nc(NC(=O)c4ccc(C(C)(C)C)cc4)cn3n2)c(C)n1` [Example 143, 4-tert-butyl-N-[6-(2,4-dimethyl-1H-imidazol-1-yl)imidazo[1,2-b]pyridazin-2-yl]benzamide], which melting point is on record?
**A.** 254 to 255 °C

**Q.** For `CC(C)(C)c1ccc(C(=O)Nc2cn3nc(-c4cn[nH]c4)ccc3n2)cc1` [Example 174, 4-tert-butyl-N-[6-(1H-pyrazol-4-yl)imidazo[1,2-b]pyridazin-2-yl]benzamide], which melting point is on record?
**A.** 358 to 362 °C (dec.)

**Q.** With `CC(=O)c1ccc2nc(NC(=O)c3ccc(C(C)(C)C)cc3)cn2n1` [Example 151, N-(6-acetylimidazo[1,2-b]pyridazin-2-yl)-4-tert-butylbenzamide] as the compound, how does the melting point read?
**A.** 237 to 238 °C

**Q.** Which melting point does the source give for `CC(=O)NCC(C)(C)c1ccc(C(=O)Nc2cn3cc(Cl)ccc3n2)cc1` [Example 122, 4-[2-(acetylamino)-1,1-dimethylethyl]-N-(6-chloroimidazo[1,2-a]pyridin-2-yl)benzamide] here?
**A.** 220 to 222 °C

**Q.** Which melting point does the source give for `CC(C)(C#N)c1ccc(C(=O)Nc2cn3cc(Cl)ccc3n2)cc1` [Example 38, N-(6-chloroimidazo[1,2-a]pyridin-2-yl)-4-(1-cyano-1-methylethyl)benzamide] here?
**A.** 248 to 250 °C

**Q.** For `COc1ccc(-c2ccc3nc(NC(=O)c4ccc(C(C)(C)C)cc4)cn3c2)cn1` [Example 106, 4-tert-butyl-N-[6-(6-methoxypyridin-3-yl)imidazo[1,2-a]pyridin-2-yl]benzamide], which melting point is on record?
**A.** 245 to 247 °C

**Q.** With `O=C(Nc1cn2cc(-n3ccnc3)ccc2n1)c1ccc(-c2ccoc2)cc1` [Example 89, 4-(3-furyl)-N-[6-(1H-imidazol-1-yl)imidazo[1,2-a]pyridin-2-yl]benzamide] as the compound, how does the melting point read?
**A.** 261 to 263 °C

**Q.** Which melting point does the source give for `CC(C)(C)c1ccc(C(=O)Nc2cn3cc(-c4ncc[nH]4)ccc3n2)cc1` [Example 73, 4-tert-butyl-N-[6-(1H-imidazol-2-yl)imidazo[1,2-a]pyridin-2-yl]benzamide] here?
**A.** 300 to 301 °C

**Q.** With `CC(C)(C)c1ccc(C(=O)Nc2cn3nc(-n4ccnc4)ccc3n2)cc1` (as salt: hydrochloride) [Example 141, 4-tert-butyl-N-[6-(1H-imidazol-1-yl)imidazo[1,2-b]pyridazin-2-yl]benzamide dihydrochloride] as the compound, how does the melting point read?
**A.** 298 to 300 °C

**Q.** Which melting point does the source give for `Cc1cccc2nc(NC(=O)c3ccc(C(C)(C)CCC(=O)O)cc3)cn12` [Example 187, 4-methyl-4-(4-{[(5-methylimidazo[1,2-a]pyridin-2-yl)amino]carbonyl}phenyl)pentanoic acid] here?
**A.** 260 °C

**Q.** For `CC(C)(CO)c1ccc(C(=O)Nc2cn3cc(-n4ccnc4)ccc3n2)cc1` [Example 103, 4-(2-hydroxy-1,1-dimethylethyl)-N-[6-(1H-imidazol-1-yl)imidazo[1,2-a]pyridin-2-yl]benzamide], which melting point is on record?
**A.** 278 to 280 °C

**Q.** For `Cc1c(NC(=O)c2ccc(C(C)(C)C)cc2)nc2ccc(-n3ccnc3)nn12` [Example 56, 4-tert-butyl-N-[6-(1H-imidazol-1-yl)-3-methylimidazo[1,2-b]pyridazin-2-yl]benzamide], which melting point is on record?
**A.** 302 to 303 °C

**Q.** For `CC(C)(C(=O)O)c1ccc(C(=O)Nc2cn3cc(-c4cn[nH]c4)ccc3n2)cc1` [Example 29, 2-methyl-2-(4-{[6-(1H-pyrazol-4-yl)imidazo[1,2-a]pyridin-2-yl]carbamoyl}phenyl)propanoic acid], which melting point is on record?
**A.** 306 to 307 °C

**Q.** With `CC(C)(CNC(=O)Cc1cnc[nH]1)c1ccc(C(=O)Nc2cn3cc(C(F)(F)F)ccc3n2)cc1` [Example 458, 4-{2-[(1H-imidazol-5-ylacetyl)amino]-1,1-dimethylethyl}-N-[6-(trifluoromethyl)imidazo[1,2-a]pyridin-2-yl]benzamide] as the compound, how does the melting point read?
**A.** 261 to 263 °C

**Q.** Which melting point does the source give for `CC(C)(C(=O)NCC#N)c1ccc(C(=O)Nc2cn3cc(Cl)ccc3n2)cc1` [Example 34, N-(6-chloroimidazo[1,2-a]pyridin-2-yl)-4-{2-[(cyanomethyl)amino]-cyano-1,1-dimethyl-2-oxoethyl}benzamide] here?
**A.** 268 to 269 °C

**Q.** Which melting point does the source give for `CC(C)(C)c1ccc(C(=O)Nc2cn3cc(-c4cnco4)ccc3n2)cc1` [Example 74, 4-tert-butyl-N-[6-(1,3-oxazol-5-yl)imidazo[1,2-a]pyridazin-2-yl]benzamide] here?
**A.** 265 to 266 °C

**Q.** Which melting point does the source give for `CC(C)(CNC(=O)C(O)CO)c1ccc(C(=O)Nc2cn3cc(Cl)ccc3n2)cc1` (stereo not drawn) [Example 450, N-(6-chloroimidazo[1,2-a]pyridin-2-yl)-4-[2-(glyceroylamino)-1,1-dimethylethyl]benzamide] here?
**A.** 228 to 229 °C

**Q.** For `CC(C)(C)c1ccc(C(=O)Nc2cn3cc(-c4cn[nH]c4)ccc3n2)cn1` [Example 114, 6-tert-butyl-N-[6-(1H-pyrazol-4-yl)imidazo[1,2-a]pyridin-2-yl]nicotinamide], which melting point is on record?
**A.** 238 to 240 °C

**Q.** Which melting point does the source give for `Cc1cccc2nc(NC(=O)c3ccc(C(C)(C)C)cc3)cn12.Cl` here?
**A.** 204 to 205 °C

**Q.** Which melting point does the source give for `COC(=O)C(C)(C)c1ccc(C(=O)Nc2cn3cc(C)ccc3n2)cc1` [Example 19, methyl 2-methyl-2-{4-[(6-methylimidazo[1,2-a]pyridin-2-yl)carbamoyl]phenyl}propanoate] here?
**A.** 228 to 230 °C

**Q.** For `CNCCNc1ccc2nc(NC(=O)c3ccc(C(C)(C)C)cc3)cn2n1` [Example 172, 4-tert-butyl-N-(6-{[2-(methylamino)ethyl]amino}imidazo[1,2-b]pyridazin-2-yl)benzamide], which melting point is on record?
**A.** 200 to 201 °C

**Q.** For `CCc1nc(C)cn1-c1ccc2nc(NC(=O)c3ccc(C(C)(C)C)cc3)cn2n1` [Example 144, 4-tert-butyl-N-[6-(2-ethyl-4-methyl-1H-imidazol-1-yl)imidazo[1,2-b]pyridazin-2-yl]benzamide], which melting point is on record?
**A.** 220 to 221 °C

**Q.** With `CC(C)(C(=O)NCC(O)CO)c1ccc(C(=O)Nc2cn3cc(Cl)ccc3n2)cc1` (stereo not drawn) [Example 454, N-(6-chloroimidazo[1,2-a]pyridin-2-yl)-4-{2-[(2,3-dihydroxypropyl)amino]-1,1-dimethyl-2-oxoethyl}benzamide] as the compound, how does the melting point read?
**A.** 198 to 199 °C

**Q.** For `CC(O)c1ccc2nc(NC(=O)c3ccc(C(C)(C)C)cc3)cn2c1` (stereo not drawn) [Example 71, 4-tert-butyl-N-[6-(1-hydroxyethyl)imidazo[1,2-a]pyridin-2-yl]benzamide], which melting point is on record?
**A.** 249 to 250 °C

**Q.** Which melting point does the source give for `CC(C)(C)c1ccc(C(=O)Nc2cn3cc(C(F)(F)F)ccc3n2)cc1` [Example 452, 4-tert-butyl-N-[6-(trifluoromethyl)imidazo[1,2-a]pyridin-2-yl]benzamide] here?
**A.** 234 to 235 °C

**Q.** Which melting point does the source give for `Cc1ncc(-c2ccc3nc(NC(=O)c4ccc(C(C)(C)C)cc4)cn3n2)[nH]1` (as salt: hydrochloride) [Example 156, 4-tert-butyl-N-[6-(2-methyl-1H-imidazol-5-yl)imidazo[1,2-b]pyridazin-2-yl]benzamide hydrochloride] here?
**A.** 295 to 297 °C (dec.)

**Q.** For `Cc1ccc2nc(NC(=O)c3ccc(C(C)(C)CCc4nnn[nH]4)cc3)cn2c1` [Example 439, 4-[1,1-dimethyl-3-(1H-tetrazol-5-yl)propyl]-N-(6-methylimidazo[1,2-a]pyridin-2-yl)benzamide], which melting point is on record?
**A.** 245 to 246 °C

**Q.** With `CC(C)(C)c1ccc(C(=O)Nc2cn3cc(-n4cncn4)ccc3n2)cc1` [Example 469, 4-tert-butyl-N-[6-(1H-1,2,4-triazol-1-yl)imidazo[1,2-a]pyridin-2-yl]benzamide] as the compound, how does the melting point read?
**A.** 274 to 276 °C

**Q.** With `CC(C)(CCC#N)c1ccc(C(=O)Nc2cn3c4c(ccc3n2)OCC4)cc1` [Example 441, 4-(3-cyano-1,1-dimethylpropyl)-N-(1,2-dihydrofuro[2,3-e]imidazo[1,2-a]pyridin-7-yl)benzamide] as the compound, how does the melting point read?
**A.** 227 to 228 °C

**Q.** With `CC(C)(CNC(=O)c1ncc[nH]1)c1ccc(C(=O)Nc2cn3cc(C(F)(F)F)ccc3n2)cc1` [Example 457, N-[2-methyl-2-(4-{[6-(trifluoromethyl)imidazo[1,2-a]pyridin-2-yl]carbamoyl}phenyl)propyl]-1H-imidazole-2-carboxamide] as the compound, how does the melting point read?
**A.** 292 to 293 °C

**Q.** With `CC(C)(CO)c1ccc(C(=O)Nc2cn3cc(-c4ccsc4)ccc3n2)cc1` [Example 466, 4-(2-hydroxy-1,1-dimethylethyl)-N-[6-(3-thienyl)imidazo[1,2-a]pyridin-2-yl]benzamide] as the compound, how does the melting point read?
**A.** 250 to 252 °C

**Q.** For `CC(C)(C)c1ccc(C(=O)Nc2cn3nc(-n4cnc(Cl)c4Cl)ccc3n2)cc1` [Example 146, 4-tert-butyl-N-[6-(4,5-dichloro-1H-imidazol-1-yl)imidazo[1,2-b]pyridazin-2-yl]benzamide], which melting point is on record?
**A.** 281 to 282 °C
